# Laboratory results published in PubChem BioAssay (NCI).
#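 Five compound concentrations were applied to cells in 96-well plates for 48 hours; endpoints were derived by simple linear interpolation of the resulting dose-response curve. At the GI50, growth is halved. The concentration for full growth arrest is given as TGI.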
# Experiments:
# Assay in all cases: growth of human tumour cells (NCI), 48 h
# [1] = tested on: MDA-MB-435
# [2] = tested on: HCC-2998 colon
# [3] = tested on: NCI-H460 lung
# [4] = tested on: SNB-78 CNS
# [5] = tested on: HOP-62 NSCLC
# [6] = tested on: MCF7 breast
# [7] = tested on: M19-MEL melanoma
# [8] = tested on: DMS 114 small cell lung
# [9] = tested on: HT29 colon
# [10] = tested on: NCI-H226 lung
# [11] = tested on: RXF 393 renal
Compound,TGI [1],TGI [2],TGI [3],TGI [4],TGI [5],TGI [6],TGI [7],TGI [8],TGI [9],TGI [10],TGI [11],GI50 [1],GI50 [2],GI50 [3]
S=c1nc(Oc2ccc(Cl)c(Cl)c2)[nH]c(=S)[nH]1,> 100 µM,37.9 µM,64.9 µM,> 100 µM,> 67.6 µM,> 100 µM,56.5 µM,48.2 µM,> 89.7 µM,> 77.6 µM,,,,
Clc1ccc(-n2nnc(C3=NCCCN3)c2-c2ccccc2)cc1,,> 100 µM,> 100 µM,> 100 µM,> 100 µM,,> 100 µM,> 100 µM,> 100 µM,> 100 µM,> 100 µM,,,
CC(=O)NC1=C(Nc2ccc(C)cc2)C(=O)c2ccccc2C1=O,,> 75 µM,22.9 µM,> 75 µM,37.6 µM,,17.5 µM,38.4 µM,31.9 µM,42.5 µM,> 75 µM,,,
N#CCc1ccc(C(C#N)/C(CCCC(=O)Nc2cccc([N+](=O)[O-])c2)=N\NC(=O)NN)cc1 (centres undefined),,> 100 µM,> 100 µM,> 100 µM,> 100 µM,,> 100 µM,> 100 µM,> 100 µM,> 100 µM,> 100 µM,,,
O=C(CNC(=O)OCc1ccccc1)Oc1ccccc1,,> 100 µM,> 100 µM,> 100 µM,> 100 µM,,> 100 µM,> 100 µM,> 100 µM,> 100 µM,> 100 µM,,,
C1CNCCNCCNCCN1,,> 100 µM,> 100 µM,> 100 µM,> 100 µM,,> 100 µM,> 100 µM,> 100 µM,> 100 µM,> 100 µM,,,
CCCCCCCCCCC(C)CCCCCCC(=O)OCC(COP(=O)([O-])OCC[N+](C)(C)C)OC(=O)CCCCCCC(C)CCCCCCCCCC (centres undefined),,> 100 µM,> 100 µM,> 100 µM,> 100 µM,,> 100 µM,> 100 µM,> 100 µM,> 100 µM,> 100 µM,,,
Cc1cccc(C)c1NC(=O)CCCC(=O)CC(=O)/C=C/c1ccccc1,,,> 100 µM,> 100 µM,,,> 100 µM,> 100 µM,> 100 µM,,> 100 µM,,,
S=c1[nH]c(=S)c2sc(=S)n(-c3ccccc3)c2[nH]1,,> 100 µM,> 100 µM,> 100 µM,> 100 µM,,> 100 µM,> 100 µM,> 100 µM,> 100 µM,> 100 µM,,,
Cc1cccc(C)c1NC(=O)/C(Cl)=C(/Cl)C(=O)O,51 µM,32.2 µM,> 69.9 µM,> 74.6 µM,> 81.7 µM,46.3 µM,43.7 µM,43.2 µM,39.3 µM,27.4 µM,33.9 µM,,,
COc1ccc2c([nH]c3cc(O)c(C)cc32)c1C=O,,> 25 µM,> 25 µM,> 25 µM,> 25 µM,,> 25 µM,> 25 µM,> 25 µM,> 25 µM,> 25 µM,,,
O=C1CCCCCCCCCCC(=O)C2CCOCCOCCOCCC1Cc1cccc(n1)C2,,> 100 µM,> 100 µM,> 100 µM,> 100 µM,,> 100 µM,> 100 µM,> 100 µM,> 100 µM,> 100 µM,,,
COC1/C=C\C=C(/C)C(=O)Nc2cc3nc4ccc(Br)cc4oc-3c(c2=O)CC(C)CC(OC)C(O)C(C)/C=C(\C)C1OC(N)=O (centres undefined),2.99 µM,3.2 µM,17.9 µM,30 µM,21.2 µM,,2.26 µM,5.34 µM,7.91 µM,17.7 µM,8.61 µM,34.2 nM,8.56 nM,4.46 nM
CC(=O)OCSc1ncnc2c1ncn2CN1CCOCC1,,> 100 µM,> 100 µM,> 100 µM,> 100 µM,,> 100 µM,> 100 µM,94.8 µM,> 100 µM,> 100 µM,,,
OCC(O)C(O)C(O)C1SC(c2ccccc2)=NN1c1ccccc1 (centres undefined),> 100 µM,> 100 µM,> 100 µM,> 96.4 µM,> 100 µM,> 100 µM,> 100 µM,> 100 µM,> 100 µM,> 100 µM,47.9 µM,,,
c1nc2cscc2c2cscc12,,> 100 µM,> 100 µM,> 100 µM,> 100 µM,,> 100 µM,> 100 µM,> 100 µM,> 100 µM,> 100 µM,,,
CC(C)=CC(=O)Oc1ccc([N+](=O)[O-])cc1,,> 100 µM,> 100 µM,> 100 µM,> 100 µM,,> 100 µM,> 100 µM,> 100 µM,> 100 µM,> 100 µM,,,
